Measurements from PMC8197855, “Peptide/β-Peptoid Hybrids with Activity against Vancomycin-Resistant Enterococci: Influence of Hydrophobicity and Structural Features on Antibacterial and Hemolytic Properties” (International Journal of Molecular Sciences, 2021).
In brackets after ≈: the same amount, converted by molar mass. Several values for one entry are separate records, joined by “and”; a condition that tells them apart may be missing. Equal entries are not always repeated.

How the values were obtained:
E. faecium ATCC 19434 [1] = experiment: Broth checkerboard assay with conventional antibiotics; type: cell-based, Enterococcus faecium; details: antibiotic alone (-); BHI broth
Method: (§1) The strain culture preparation and final volume were the same as in the MIC assay. […] The plates were incubated for 24 h at 37 °C without shaking. […] All experiments were performed in two biological replicates.
(§2) To evaluate the effect of the combinations, the fractional inhibitory concentration index (FICI) was calculated for each combination according to:ΣFIC = FICA + FICB = (CA/MICA) + (CB/MICB)
(§3) The drug interaction was scored as follows: synergy—FICI ≤ 0.5; no interaction—FICI > 0.5–4; antagonism—FICI > 4 [40].

E. faecalis ATCC 29212 [2] = experiment: as above; type: cell-based, Enterococcus faecalis; details: antibiotic alone (-); BHI broth
Method: as §1, §2, §3

E. faecium 1798 = experiment: microbe, parasite or virus in culture; type: cell-based, Enterococcus faecium; details: 1798, 24 h
Method: (§4) Overnight cultures of the enterococcal isolates were diluted in physiological saline (0.9% NaCl) to reach a turbidity of 0.5 McFarland units (Sensititre® nephelometer and the Sensititre® McFarland Standard). Bacterial suspensions were adjusted to 5 × 10^5 CFU/mL in MHB II or BHI broth containing two-fold dilutions of peptidomimetics or conventional antibiotics in a final volume of 100 µL. The plates were incubated for 24 h at 37 °C without shaking. […] All experiments were performed in three biological replicates.

E. faecium 2961 = experiment: microbe, parasite or virus in culture; type: cell-based, Enterococcus faecium; details: 2961, 24 h
Method: as §4

E. faecium 3978 = experiment: microbe, parasite or virus in culture; type: cell-based, Enterococcus faecium; details: 3978, 24 h
Method: as §4

E. faecium D344R = experiment: microbe, parasite or virus in culture; type: cell-based, Enterococcus faecium; details: E. faecium D344R, human clinical isolate; 24 h
Method: as §4

E. faecium ATCC 19434 [3] = experiment: microbe, parasite or virus in culture; type: cell-based, Enterococcus faecium; details: ATCC 19434, 24 h
Method: as §4, with “replicates. […]” for “replicates.”

E. faecalis ATCC 29212 [4] = experiment: microbe, parasite or virus in culture; type: cell-based, Enterococcus faecalis; details: ATCC 29212, 24 h
Method: as §4, with “replicates. […]” for “replicates.”

[5] = Hydrophobicity by analytical RP-HPLC (% MeCN at peak elution); type: physicochemical
Method: Water was filtered by using an Evoqua LaboStar PRO TWF Ultra Pure Water System prior to use in high-performance liquid chromatography (HPLC). The retention time for each peptidomimetic was determined by analytical HPLC using a Phenomenex Luna C18(2) HST column (100 mm × 3 mm; particle size: 2.5 μm; pore size: 100 Å) on a Shimadzu Prominence and Shimadzu Nexera system using an aqueous MeCN gradient with 0.1% trifluoroacetic acid (TFA) added (eluent A: 5:95 MeCN–H2O + 0.1% TFA; eluent B: 95:5 MeCN–H2O + 0.1% TFA); a flow rate of 0.5 mL/min was used. For the elution of peptidomimetics, a linear gradient of 0% to 60% B over 10 min was used with UV detection at λ = 220 nm. The percentage MeCN at peak elution was calculated from the retention time (tR) by using the following formula:%MeCN = [0.95 × 0.6 × tR/10 + 0.05 × (1 − 0.6 × tR/10)] × 100%

Hemolytic activity = type: cell-based, human; details: 37 °C, 1% red blood cell suspension; for hemolysis at 60 min, 400 µg/mL: human, human red blood cells (washed, 1% suspension)
Method: A suspension of hRBCs (Single-donor human red blood cells—washed; catalogue No. IPLA-W3 from Innovative researchTM) was washed three times with PBS buffer and centrifuged for 5 min at 2500 rpm. A two-fold serial dilution of compounds in PBS buffer was prepared. Plates (conical-bottomed 96-well plates) with 3 replicate wells per dilution, containing 1% red blood cell suspension, were prepared and dosed with the test compound to achieve a final concentration of 400 μg/mL in a total volume of 100 μL. The plates were incubated (37 °C) for 60 min with mild agitation, and then the cells were pelleted by centrifugation at 1500 rpm for 5 min. Then, the supernatants (50 μL) were transferred to a fresh 96-well plate, and then the concentration of hemoglobin was detected by measuring the OD at 405 nm. The OD of cells incubated with 1% SDS achieved 100% hemolysis, while the OD of cells incubated with PBS buffer achieved 0% hemolysis. The concentration tested was 400 μg/mL (only average values are stated in Table 3). The percent hemolysis was calculated by using the formula:Hemolysis(%) = 100 × [(Asample − Aneg.control)/(Apos. control − Aneg.control)]

[6] = tested on: HepG2 cell line ATCC HB-8065; experiment: Effect on HepG2 cell viability (MTT assay); type: cell-based, human; details: 48 h
Method: The effect of peptidomimetics on mammalian cell viability was determined on the HepG2 cell line ATCC HB-8065. In brief, HepG2 cells were seeded into flat-bottom 96-well plates at a concentration of 5000 cells per well. The cells were incubated for 24 h in a humidified incubator (5% CO2, 37 °C). Subsequently, the medium was removed, and the cells were incubated for 48 h in a humidified incubator (5% CO2, 37 °C) with peptidomimetics in serial dilutions. An MTT assay was then performed; in brief, after incubation with the test compounds, the culture medium was removed and fresh medium with 0.2 mg/mL MTT was then added into each well. After incubation (3 h, 37 °C, 5% CO2), the medium with MTT was removed, and 200 μL dimethyl sulfoxide was added at once to each sample. The absorbance of MTT was measured using the spectrophotometer TECAN Infinite M1000 at 540 nm. The relative viability was calculated by using the formula:ODtreated cells × 100/ODcontrol cells
The IC50 values were calculated using the program Graph Pad Prism 5.0. For all compounds, the test range was 10–1280 μg/mL.

E. faecium isolates = type: cell-based, Enterococcus faecium; details: 24 h
Method: as §4

E. faecalis 38262 = experiment: microbe, parasite or virus in culture; type: cell-based, Enterococcus faecalis
Method: as §4

E. faecalis 39002 = experiment: microbe, parasite or virus in culture; type: cell-based, Enterococcus faecalis; details: 39002, 24 h
Method: as §4

Row | MIC of antibiotic (E. faecium ATCC 19434 [1]) | MIC of antibiotic (E. faecalis ATCC 29212 [2]) | SMILES | Minimum inhibitory concentration (E. faecium 1798) | Minimum inhibitory concentration (E. faecium 2961) | Minimum inhibitory concentration (E. faecium 3978) | Minimum inhibitory concentration (E. faecium D344R) | Minimum inhibitory concentration (E. faecium ATCC 19434 [3]) | Minimum inhibitory concentration (E. faecalis ATCC 29212 [4]) | Hydrophobicity, Luna C18(2) HST (0–60% B; 10 min), retention converted into % MeCN [5] | hemolysis at 60 min, 400 µg/mL (Hemolytic activity) | HepG2 IC50 [6] | MIC (range or typical value) against E. faecium (E. faecium isolates) | Minimum inhibitory concentration (E. faecalis 38262; 38262, 24 h) | Minimum inhibitory concentration (E. faecalis 39002) | hemolysis (Hemolytic activity; 400 µg/mL, 60 min) | Minimum inhibitory concentration (E. faecalis 38262; E. faecalis 38262, veterinary isolate, 24 h)
1 | 64 µg/mL | 16 µg/mL | CNC(C)C1CCC(N)C(OC2C(N)CC(N)C(OC3OCC(C)(O)C(NC)C3O)C2O)O1 (centres unmarked) [Gentamicin, gentamicin] | – | – | – | – | – | – | – | – | – | – | – | – | – | –
2 | – | – | C[C@@H](c1ccccc1)N(CCC(N)=O)C(=O)[C@H](CCCCN)NC(=O)CCN(C(=O)[C@H](CCCCNC(=N)N)NC(=O)CCN(C(=O)[C@H](CCCCN)NC(=O)CCN(C(=O)[C@H](CCCCNC(=N)N)NC(=O)CCN(C(=O)[C@H](CCCCN)NC(=O)CCN(C(=O)[C@H](CCCCNC(=N)N)NC(=O)CNCCCNCCCCNCCCN)[C@@H](C)c1ccccc1)[C@@H](C)c1ccccc1)[C@@H](C)c1ccccc1)[C@@H](C)c1ccccc1)[C@@H](C)c1ccccc1 [Compound 3, SpermineAc-[hArg-βNspe-Lys-βNspe]3-NH2] | 4 to 8 µg/mL | 8 µg/mL (≈ 3.63 µM) | 8 µg/mL (≈ 3.63 µM) | 4 to 8 µg/mL | 16 to 32 µg/mL | >32 µg/mL | 40 % MeCN and 40.2 % MeCN | 0.6% | 41 µg/mL | 4 to 8 µg/mL | – | – | – | –
3 | – | – | NCCCC[C@H](NC(=O)CCN(CC1CCCCC1)C(=O)[C@H](CCCCN)NC(=O)CCN(CC1CCCCC1)C(=O)[C@H](CCCCN)NC(=O)CCN(CC1CCCCC1)C(=O)[C@H](CCCCN)NC(=O)CCN(CC1CCCCC1)C(=O)[C@H](CCCCN)NC(=O)CCN(CC1CCCCC1)C(=O)[C@H](CCCCN)NC(=O)CCN(CC1CCCCC1)C(=O)[C@H](CCCCN)NC(=O)CCN(CC1CCCCC1)C(=O)[C@@H](N)CCCCN)C(=O)N(CCC(N)=O)CC1CCCCC1 [Compound 9, H-[Lys-βNCha]8-NH2] | 2 to 4 µg/mL | 2 to 4 µg/mL | 2 to 4 µg/mL | – | 2 to 4 µg/mL | 2 to 4 µg/mL | – | – | – | – | 8 µg/mL (≈ 3.36 µM) | 4 µg/mL (≈ 1.68 µM) | > 20% | –
4 | – | – | CCCCCCCCCCCC(=O)N[C@@H](CCCCN)C(=O)N(CCC(=O)N[C@@H](CCCCN)C(=O)N(CCC(=O)N[C@@H](CCCCN)C(=O)N(CCC(=O)N[C@@H](CCCCN)C(=O)N(CCC(=O)N[C@@H](CCCCN)C(=O)N(CCC(=O)N[C@@H](CCCCN)C(=O)N(CCC(N)=O)Cc1ccccc1)Cc1ccccc1)Cc1ccccc1)Cc1ccccc1)Cc1ccccc1)Cc1ccccc1 [Compound 11, Lau-[Lys-βNPhe]6-NH2] | 2 to 4 µg/mL | 2 to 4 µg/mL | 2 to 4 µg/mL | 2 to 4 µg/mL | 4 µg/mL (≈ 2.07 µM) | 4 µg/mL (≈ 2.07 µM) | – | – | 22 µg/mL | – | 4 to 8 µg/mL | 4 to 8 µg/mL | – | –
5 | – | – | NCCCC[C@H](NC(=O)CCN(Cc1cc(F)c(F)c(F)c1)C(=O)[C@H](CCCCN)NC(=O)CCN(Cc1cc(F)c(F)c(F)c1)C(=O)[C@H](CCCCN)NC(=O)CCN(Cc1cc(F)c(F)c(F)c1)C(=O)[C@H](CCCCN)NC(=O)CCN(Cc1cc(F)c(F)c(F)c1)C(=O)[C@H](CCCCN)NC(=O)CCN(Cc1cc(F)c(F)c(F)c1)C(=O)[C@@H](N)CCCCN)C(=O)N(CCC(N)=O)Cc1cc(F)c(F)c(F)c1 [Compound 8, H-[Lys-βNPhe(F3)]6-NH2] | 2 to 4 µg/mL | 2 µg/mL (≈ 0.963 µM) | 2 µg/mL (≈ 0.963 µM) | 2 µg/mL (≈ 0.963 µM) | 2 to 4 µg/mL | 2 to 4 µg/mL | – | > 20% | 27 µg/mL | – | 8 to 16 µg/mL | 2 µg/mL (≈ 0.963 µM) | – | –
6 | 8 µg/mL | 1 µg/mL | CO[C@H]1/C=C/O[C@@]2(C)Oc3c(C)c(O)c4c(O)c(c(/C=N/N5CCN(C)CC5)c(O)c4c3C2=O)NC(=O)/C(C)=C\C=C\[C@H](C)[C@H](O)[C@@H](C)[C@@H](O)[C@@H](C)[C@H](OC(C)=O)[C@@H]1C [Rifampicin, rifampicin] | – | – | – | – | – | – | – | – | – | – | – | – | – | –
7 | 2 µg/mL | 2 µg/mL | CC(=O)NC[C@H]1CN(c2ccc(N3CCOCC3)c(F)c2)C(=O)O1 [Linezolid, linezolid] | – | – | – | – | – | – | – | – | – | – | – | – | – | –
8 | – | – | NCCCC[C@H](NC(=O)CCN(Cc1ccc(F)cc1)C(=O)[C@H](CCCCN)NC(=O)CCN(Cc1ccc(F)cc1)C(=O)[C@H](CCCCN)NC(=O)CCN(Cc1ccc(F)cc1)C(=O)[C@H](CCCCN)NC(=O)CCN(Cc1ccc(F)cc1)C(=O)[C@H](CCCCN)NC(=O)CCN(Cc1ccc(F)cc1)C(=O)[C@H](CCCCN)NC(=O)CCN(Cc1ccc(F)cc1)C(=O)[C@H](CCCCN)NC(=O)CCN(Cc1ccc(F)cc1)C(=O)[C@@H](N)CCCCN)C(=O)N(CCC(N)=O)Cc1ccc(F)cc1 [Compound 7, H-[Lys-βNPhe(F)]8-NH2] | 2 to 4 µg/mL | 2 to 4 µg/mL | 4 to 8 µg/mL | 4 to 8 µg/mL | 8 to 16 µg/mL | 8 to 16 µg/mL | 41.3 % MeCN | 1.5% | 50 µg/mL | – | – | 8 to 16 µg/mL | – | > 32 µg/mL
9 | 4 to 8 µg/mL | 1 to 2 µg/mL | CC[C@H]1OC(=O)[C@H](C)[C@@H](O[C@H]2C[C@@](C)(OC)[C@@H](O)[C@H](C)O2)[C@H](C)[C@@H](O[C@@H]2O[C@H](C)C[C@H](N(C)C)[C@H]2O)[C@](C)(O)C[C@@H](C)CN(C)[C@H](C)[C@@H](O)[C@]1(C)O [Azithromycin, azithromycin] | – | – | – | – | – | – | – | – | – | – | – | – | – | –
